Source: PubChem BioAssay AID2060346 (Molecular Pharmacology Branch, DTP, NCI, 2025)
Several values for one entry are separate records, joined by “and”; a condition that tells them apart may be missing. Equal entries are not always repeated. One block for each compound: values may come before it.

System: CN0375-F725-PDC multi-cell spheroids, viability
Assay: Anticancer human tumor CN0375-F725-PDC patient-derived colon carcinoma cell line growth inhibition [TAK]
Conditions: for viability, T/C: stronger effect = lower value
Text: Combinatorial screen of targeted agents with TAK-243 and ipatasertib in multi-cell type tumor spheroids
A high-throughput screen of multi-cell type tumor spheroids was designed to identify active combinations of targeted small molecules and TAK-243 or ipatasertib. Complex spheroids include a stromal component modeled by human endothelial cells (HUVEC) and fibroblasts modeled by human mesenchymal stem cells (MSCs). The concentration ranges selected for each drug and investigational agent were based upon clinically achievable concentrations if the clinical Cmax of the agent was known.
Compounds. The drugs and investigational agents: TAK-243 (785004), ipatasertib (767898), everolimus (733504), selumetinib (741078), bortezomib (756655), trametinib (758246), ixazomib (758254), vemurafenib (761431), dabrafenib (764134), sapanisertib (764658), alpelisib (765974), and copanlisib (816437), were obtained from the National Cancer Institute (NCI) Developmental Therapeutics Program Chemical Repository. The FDA-approved anticancer drug set is available from the NCI Developmental Therapeutics Program. […] The stock solutions were prepared in dimethyl sulfoxide (DMSO, Sigma-Aldrich, St. Louis, MO, cat. D2650) at 800-fold the tested concentration and stored at -70 degrees C prior to their use. All drugs and investigational agents were tested over a range starting from a high concentration at or near the clinical Cmax and decreasing in half-log increments. If the clinical Cmax for an agent had not been determined, the highest concentration tested was 10 microM.
NCI60 Cell Culture. NCI60 cell lines were obtained from the NCI Developmental Therapeutics Program Tumor Repository. For each lot of cells, the Repository performed Applied Biosystems AmpFLSTR Identifiler testing with PCR amplification to confirm consistency with the published Identifier STR profile for each cell line. Cells were kept in continuous culture for no more than 20 passages. The optimal seeding densities for each of the cell lines at each time point assessed were determined prior to performing the concentration response studies. Briefly, the NCI60 human tumor lines were grown as monolayers in RPMI 1640 medium supplemented with 10% FBS and 2 mmol/L L-glutamine.
An additional 2 lines were from the NCI60 cell line panel including melanomas, MALME-3M and SK-MEL-2. Pooled donor human umbilical vein endothelial cells (HUVEC, Lonza, cat. CC-2519) and human mesenchymal stem cells (hMSC, Lonza, cat. PT-2501) were purchased from Lonza (Walkersville, MD).
PDMR cell lines were grown in complete medium (DC medium): Dulbecco's modified Eagle's medium (DMEM)/F12 supplemented with 5% fetal bovine serum (FBS), 2 mM L-glutamine, 100 U/mL penicillin and 100 µg/ml streptomycin, 0.4 µg/ml hydrocortisone, 10 ng/ml epidermal growth factor (EGF) recombinant human protein, 24 µg/mL adenine, and 0.1 mg/mL primocin. During culture from frozen stock vials, PDMR cells were cultured in the same medium containing 10 µM Y-27632 (see Table 3). The PDCs were cultured in complete DMEM/F12 media without 10 microM Y-27632 dihydrochloride for at least two passages prior to the screen. The pooled donor HUVEC and hMSC were cultured in endothelial cell growth medium 2 (PromoCell, Heidelberg, Germany, cat. C-22011) and mesenchymal stem cell growth medium 2 (PromoCell, cat. C-28009), respectively. For all experiments, HUVEC and hMSC were used at passages </=5.
For the pre-screen, cell seeding densities were determined from a titration spanning the range from 5,000 to 313 cells per well. The mct-spheroids including 60% malignant cells, 25% HUVEC and 15% MSC dispensed as a mixture into U-bottom Ultra-Low Attachment 384-well plates (Corning, NY)
High-throughput Drug Combination Screening.
Prior to their inoculation into 384-well plates, malignant cells, HUVEC, and hMSC were removed from T flasks using TrypLE express (Thermo Fisher Scientific, cat. 12605036) and harvested by centrifugation for 5 min at 233 x g. […]

[1] = curve of first compound, second compound 0.3 µM
[2] = curve of first compound, second compound 0.949 µM
[3] = curve of first compound, second compound 3 µM
[4] = curve of first compound, second compound 9.49 µM
[5] = curve of first compound, second compound 30 µM
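Also: spheroids exposed to drugs for seven days.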
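For viability, T/C in this document: 100% = DMSO vehicle control wells.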

Compound: CCCS(=O)(=O)Nc1ccc(F)c(C(=O)c2c[nH]c3ncc(-c4ccc(Cl)cc4)cc23)c1F + CC(C)NCC(C(=O)N1CCN(c2ncnc3c2C(C)CC3O)CC1)c1ccc(Cl)cc1
IC50 [1]: > 100000 nM
IC50 [2]: > 100000 nM
IC50 [3]: > 100000 nM
IC50 [4]: 8150 nM
IC50 [5]: 3750 nM
viability, T/C (second compound 0.3 µM, first compound 0.316 µM): 105%
viability, T/C (second compound 0.3 µM, first compound 1 µM): 120%
viability, T/C (second compound 0.3 µM, first compound 3.16 µM): 106%
viability, T/C (second compound 0.3 µM, first compound 10 µM): 66.1%
viability, T/C (second compound 0.3 µM, first compound 31.6 µM): 26.5%
viability, T/C (second compound 0.3 µM, first compound 100 µM): 121%
viability, T/C (second compound 0.949 µM, first compound 0.316 µM): 101%
viability, T/C (second compound 0.949 µM, first compound 1 µM): 109%
viability, T/C (second compound 0.949 µM, first compound 3.16 µM): 99.8%
viability, T/C (second compound 0.949 µM, first compound 10 µM): 58.8%
viability, T/C (second compound 0.949 µM, first compound 31.6 µM): 10.6%
viability, T/C (second compound 0.949 µM, first compound 100 µM): 105%
viability, T/C (second compound 3 µM, first compound 0.316 µM): 98.2%
viability, T/C (second compound 3 µM, first compound 1 µM): 110%
viability, T/C (second compound 3 µM, first compound 3.16 µM): 89%
viability, T/C (second compound 3 µM, first compound 10 µM): 54.7%
viability, T/C (second compound 3 µM, first compound 31.6 µM): 9.13%
viability, T/C (second compound 3 µM, first compound 100 µM): 99.8%
viability, T/C (second compound 9.49 µM, first compound 0.316 µM): 95.7%
viability, T/C (second compound 9.49 µM, first compound 1 µM): 95.5%
viability, T/C (second compound 9.49 µM, first compound 3.16 µM): 79.8%
viability, T/C (second compound 9.49 µM, first compound 10 µM): 24.1%
viability, T/C (second compound 9.49 µM, first compound 31.6 µM): 27.2%
viability, T/C (second compound 9.49 µM, first compound 100 µM): 79.5%
viability, T/C (second compound 30 µM, first compound 0.316 µM): 86%
viability, T/C (second compound 30 µM, first compound 1 µM): 82.2%
viability, T/C (second compound 30 µM, first compound 3.16 µM): 54.7%
viability, T/C (second compound 30 µM, first compound 10 µM): 13.9%
viability, T/C (second compound 30 µM, first compound 31.6 µM): 2.73%
viability, T/C (second compound 30 µM, first compound 100 µM): 52.6%

IC50 (curve of compound): 7.76 nM and 7.87 nM
Compound: CC(C)CC(NC(=O)C(Cc1ccccc1)NC(=O)c1cnccn1)B(O)O (stereo not drawn)
viability, T/C (compound 31.6 pM): 112% and 110%
viability, T/C (compound 0.0001 µM): 98.7% and 113%
viability, T/C (compound 0.000316 µM): 104% and 103%
viability, T/C (compound 0.001 µM): 109% and 105%
viability, T/C (compound 0.00316 µM): 103% and 106%
viability, T/C (compound 0.01 µM): 34.9% and 35.3%

IC50 (curve of compound): 220 nM and 144 nM
Compound: COc1c(OCCCN2CCOCC2)ccc2c3n(c(=NC(=O)c4cnc(N)nc4)nc12)CCN3
viability, T/C (compound 0.00316 µM): 96.6% and 99.3%
viability, T/C (compound 0.01 µM): 89.4% and 83.8%
viability, T/C (compound 0.0316 µM): 78.5% and 68.5%
viability, T/C (compound 0.1 µM): 63.8% and 55.3%
viability, T/C (compound 0.316 µM): 42.5% and 39.9%
viability, T/C (compound 1 µM): 34.6% and 29.2%

Compound: CC(=O)Nc1cccc(-n2c(=O)n(C3CC3)c(=O)c3c(Nc4ccc(I)cc4F)n(C)c(=O)c(C)c32)c1 + CC(C)NCC(C(=O)N1CCN(c2ncnc3c2C(C)CC3O)CC1)c1ccc(Cl)cc1
IC50 [1]: 9.39 nM
IC50 [2]: 5.66 nM
IC50 [3]: 5.23 nM
IC50 [4]: 4.87 nM
IC50 [5]: 1.23 nM
viability, T/C (second compound 0.3 µM, first compound 94.9 pM): 99.7%
viability, T/C (second compound 0.3 µM, first compound 0.0003 µM): 93%
viability, T/C (second compound 0.3 µM, first compound 0.000949 µM): 74.4%
viability, T/C (second compound 0.3 µM, first compound 0.003 µM): 68.9%
viability, T/C (second compound 0.3 µM, first compound 0.00949 µM): 48.6%
viability, T/C (second compound 0.3 µM, first compound 0.03 µM): 33.7%
viability, T/C (second compound 0.949 µM, first compound 94.9 pM): 92.4%
viability, T/C (second compound 0.949 µM, first compound 0.0003 µM): 86.3%
viability, T/C (second compound 0.949 µM, first compound 0.000949 µM): 75.5%
viability, T/C (second compound 0.949 µM, first compound 0.003 µM): 57.1%
viability, T/C (second compound 0.949 µM, first compound 0.00949 µM): 44.3%
viability, T/C (second compound 0.949 µM, first compound 0.03 µM): 31.5%
viability, T/C (second compound 3 µM, first compound 94.9 pM): 88.1%
viability, T/C (second compound 3 µM, first compound 0.0003 µM): 83.5%
viability, T/C (second compound 3 µM, first compound 0.000949 µM): 70%
viability, T/C (second compound 3 µM, first compound 0.003 µM): 56.3%
viability, T/C (second compound 3 µM, first compound 0.00949 µM): 43.6%
viability, T/C (second compound 3 µM, first compound 0.03 µM): 30.1%
viability, T/C (second compound 9.49 µM, first compound 94.9 pM): 81.4%
viability, T/C (second compound 9.49 µM, first compound 0.0003 µM): 82.7%
viability, T/C (second compound 9.49 µM, first compound 0.000949 µM): 69.9%
viability, T/C (second compound 9.49 µM, first compound 0.003 µM): 57.4%
viability, T/C (second compound 9.49 µM, first compound 0.00949 µM): 40.3%
viability, T/C (second compound 9.49 µM, first compound 0.03 µM): 26.1%
viability, T/C (second compound 30 µM, first compound 94.9 pM): 70%
viability, T/C (second compound 30 µM, first compound 0.0003 µM): 67.5%
viability, T/C (second compound 30 µM, first compound 0.000949 µM): 53%
viability, T/C (second compound 30 µM, first compound 0.003 µM): 36.1%
viability, T/C (second compound 30 µM, first compound 0.00949 µM): 24.1%
viability, T/C (second compound 30 µM, first compound 0.03 µM): 13.6%

IC50 (curve of compound): 10.6 nM and 11.2 nM
Compound: CC(=O)Nc1cccc(-n2c(=O)n(C3CC3)c(=O)c3c(Nc4ccc(I)cc4F)n(C)c(=O)c(C)c32)c1
viability, T/C (compound 94.9 pM): 106% and 100%
viability, T/C (compound 0.0003 µM): 96.5% and 91.6%
viability, T/C (compound 0.000949 µM): 78.1% and 77.9%
viability, T/C (compound 0.003 µM): 67.4% and 64.9%
viability, T/C (compound 0.00949 µM): 52.9% and 52.8%
viability, T/C (compound 0.03 µM): 35.6% and 38.6%

IC50 (curve of compound): > 10000 nM
Compound: CC(C)(C)c1nc(-c2cccc(NS(=O)(=O)c3c(F)cccc3F)c2F)c(-c2ccnc(N)n2)s1
viability, T/C (compound 0.0316 µM): 126% and 115%
viability, T/C (compound 0.1 µM): 130% and 129%
viability, T/C (compound 0.316 µM): 126% and 133%
viability, T/C (compound 1 µM): 112% and 127%
viability, T/C (compound 3.16 µM): 104% and 119%
viability, T/C (compound 10 µM): 110% and 107%
